# Results taken from publication PMC7318245, “Powering Artificial Enzymatic Cascades with Electrical Energy” (Angewandte Chemie (International Ed. in English), 2020).
# Target: T1, SH (O2-tolerant, NAD+-reducing hydrogenase, soluble hydrogenase) (Cupriavidus necator, UniProt P22317)
# T1 construct: gene hoxF; purified; immobilised on Amberlite FP54; hydrogenase and diaphorase modules; with NAD-reducing hydrogenase HoxS subunit gamma; NAD-reducing hydrogenase HoxS subunit delta; NAD-reducing hydrogenase HoxS subunit beta; NAD-reducing hydrogenase subunit HoxI
# T1 sequence (P22317 whole entry): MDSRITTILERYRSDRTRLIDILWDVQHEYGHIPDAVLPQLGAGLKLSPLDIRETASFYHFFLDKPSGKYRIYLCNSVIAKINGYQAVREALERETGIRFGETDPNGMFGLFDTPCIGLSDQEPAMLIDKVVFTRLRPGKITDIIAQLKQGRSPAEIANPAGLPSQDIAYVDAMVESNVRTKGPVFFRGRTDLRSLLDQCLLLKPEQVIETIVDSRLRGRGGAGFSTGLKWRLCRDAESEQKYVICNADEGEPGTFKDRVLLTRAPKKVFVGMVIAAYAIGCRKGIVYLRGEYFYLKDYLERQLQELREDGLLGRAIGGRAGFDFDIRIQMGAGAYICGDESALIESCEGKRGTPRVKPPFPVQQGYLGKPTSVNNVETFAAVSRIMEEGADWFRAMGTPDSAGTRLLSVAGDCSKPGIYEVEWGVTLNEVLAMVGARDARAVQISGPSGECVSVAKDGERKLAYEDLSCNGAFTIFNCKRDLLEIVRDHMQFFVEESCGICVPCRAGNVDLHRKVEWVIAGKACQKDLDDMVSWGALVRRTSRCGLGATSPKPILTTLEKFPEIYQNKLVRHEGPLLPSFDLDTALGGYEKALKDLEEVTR
# T1 sequence (P22318 2-234 partner): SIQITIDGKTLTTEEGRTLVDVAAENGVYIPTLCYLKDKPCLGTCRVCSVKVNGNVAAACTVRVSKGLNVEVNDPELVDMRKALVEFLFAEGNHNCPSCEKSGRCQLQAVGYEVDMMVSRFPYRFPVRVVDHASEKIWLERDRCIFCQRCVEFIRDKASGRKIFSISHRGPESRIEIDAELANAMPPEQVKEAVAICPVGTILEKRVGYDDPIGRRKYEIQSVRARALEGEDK
# T1 sequence (P22319 whole entry partner): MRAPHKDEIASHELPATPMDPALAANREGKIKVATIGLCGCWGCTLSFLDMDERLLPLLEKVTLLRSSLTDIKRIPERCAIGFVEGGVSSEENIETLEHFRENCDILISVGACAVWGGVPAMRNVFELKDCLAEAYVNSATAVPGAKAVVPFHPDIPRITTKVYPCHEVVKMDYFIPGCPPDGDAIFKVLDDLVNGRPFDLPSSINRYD
# T1 sequence (P22320 2-464 partner): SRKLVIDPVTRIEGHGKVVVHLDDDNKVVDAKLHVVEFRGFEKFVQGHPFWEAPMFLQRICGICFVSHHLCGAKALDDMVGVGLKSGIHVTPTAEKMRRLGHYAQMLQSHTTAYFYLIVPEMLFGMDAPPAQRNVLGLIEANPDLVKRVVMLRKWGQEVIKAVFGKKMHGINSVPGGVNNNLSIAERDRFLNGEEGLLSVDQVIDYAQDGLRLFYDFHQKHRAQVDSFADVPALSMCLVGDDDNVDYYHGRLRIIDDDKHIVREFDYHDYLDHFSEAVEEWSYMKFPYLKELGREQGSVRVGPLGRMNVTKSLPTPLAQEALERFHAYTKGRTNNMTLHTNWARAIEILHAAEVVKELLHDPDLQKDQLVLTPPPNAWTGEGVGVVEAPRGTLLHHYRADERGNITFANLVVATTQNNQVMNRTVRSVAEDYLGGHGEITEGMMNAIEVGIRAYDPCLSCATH
# Test: on-line H2 consumption and NADH evolution
# Type: biochemical
# Conditions: immobilised enzyme in cascade; 2 mM NAD+, H2, Tris-HCl 50 mM pD 8.0, 22 °C
smiles,measurement,value
NC(=O)c1ccc[n+]([C@@H]2O[C@H](COP(=O)(O)OP(=O)(O)OC[C@H]3O[C@@H](n4cnc5c(N)ncnc54)[C@H](O)[C@@H]3O)[C@@H](O)[C@H]2O)c1 [NAD^+],on-line H2 consumption and NADH evolution,consumption of H2 (A) and the evolution of NADH (C)
